# Assay results from patent US9750727B2 (priority 2010, dated 2017).
# Where two headings read alike, the source gives them in different places.
# Assays:
# [1] = test system: M. bovis bovinus 8; assay type: in vivo, mice
# [2] = test system: M. bovis bovinus 8; assay type: in vivo, mice; remark: listed apart in the source
# [3] = test system: M. bovis bovinus 8; assay type: in vivo, mice; details: combination of the new treatment with the TB drug
# [4] = in vivo; cited from earlier work
# [5] = test system: M. bovis bovinus 8; assay type: in vivo, rabbits; details: for Body weight ITE (%): 15 mg/kg
# [6] = test system: M. tuberculosis “Academia”; assay: Double serial dilution, growth of drug-sensitive test strain; assay type: cell-based; parameters: key to Degree of mycobacterial growth: primary inhibition of mycobacterial growth (++)
# [7] = Allergenic, immunotoxic and mutagenic properties
# [8] = test system: M. bovis bovinus 8; assay type: cell-based
# [9] = General toxicity; assay type: in vivo
# [10] = test system: M. tuberculosis Erdman; assay: Double serial dilution, growth of drug-sensitive test strain; assay type: cell-based; parameters: key to Degree of mycobacterial growth: primary inhibition of mycobacterial growth (++); details: for Degree of mycobacterial growth: 10^6 cells/ml
# [11] = test system: M. tuberculosis H37Rv; assay: as above; assay type: cell-based; parameters: key to Degree of mycobacterial growth: primary inhibition of mycobacterial growth (++)
# [12] = Stability during storage; assay type: physicochemical
# [13] = test system: gram-positive and gram-negative microorganisms; assay type: cell-based
# [14] = test system: M. bovis bovinus 8; parameters: species or system mice; details: mouse, in vivo
# [15] = Embryo toxicity, teratogenicity and reproductive function; assay type: in vivo, animals
# [16] = test system: Mycobacteria tuberculosis; assay: Tuberculostatic activity compared with the prototype drug; details: in comparison with the prototype drug
# [17] = TB drug combined with the new treatment (20 mg/kg, per os) vs TB drug monotherapy, mice, 42 days
# [18] = TB drug combined with the new treatment (20 mg/kg, per os) vs TB drug monotherapy, mice, 42 days of treatment
# [19] = new treatment in combination with the TB drug, compared to monotherapy with the new treatment alone
# [20] = rabbits, 15 mg/kg per os, vs infection control
# [21] = 3.125 μg/ml in medium, 10^6 cells/ml
structure (smiles),measurement,setting,value
"NCC[C@H](O)C(=O)N[C@@H]1C[C@H](N)[C@@H](O[C@H]2O[C@H](CN)[C@@H](O)[C@H](O)[C@H]2O)[C@H](O)[C@H]1O[C@H]1O[C@H](CO)[C@@H](O)[C@H](N)[C@H]1O [Amycacin, amycacin]",Scored sum of area: Breathing lung tissue,"[1]; mouse, in vivo",17.7
same,Scored sum of area: Dense lymphocytic infiltrate,"[1]; mouse, in vivo",3.12
same,Scored sum of area: Desquamative pneumonia,"[1]; mouse, in vivo",2.94
same,Scored sum of area: Polymorpho cellular infiltrate,"[1]; mouse, in vivo",0
same,Scored sum of area: Total lung tissue,"[1]; mouse, in vivo",23.76
same,improvement of the indices of lung damage (morphological),"[1]; mouse, in vivo",2.56%
same,decrease in the coefficient of liver weight,"[2]; mouse, in vivo",34.6%
same,decrease in the index of lung damage,"[2]; mouse, in vivo",1.8%
same,"effect of combination on therapeutic effectiveness, in words","[2]; mouse, in vivo",increased the therapeutic effectiveness
same,increase in therapeutic effectiveness (average of indices of organ damage),"[2]; mouse, in vivo",11.34%
"CC[C@@H](CO)NCCN[C@@H](CC)CO [Ethambutol, ethambutol]",Scored sum of area: Breathing lung tissue,"[1]; mice, 42 days of treatment",9.78
same,Scored sum of area: Dense lymphocytic infiltrate,"[1]; mice, 42 days of treatment",6.8
same,Scored sum of area: Desquamative pneumonia,"[1]; mice, 42 days of treatment",6.93
same,Scored sum of area: Polymorpho cellular infiltrate,"[1]; mice, 42 days of treatment",0.27
same,Scored sum of area: Total lung tissue,"[1]; mice, 42 days of treatment",23.78
same,decrease in CFU levels in the spleen,[2]; [17],33.3%
same,decrease in coefficient of spleen weight,[2]; [17],22.1%
same,decrease in the coefficient of liver weight,[2]; [17],8.9%
same,increase in the index of lung damage,[2]; [17],4.0%
same,increase in the index of lung weight,[2]; [17],3.1%
same,increase in therapeutic effectiveness (average of indices of organ damage),[2]; [18],11.44%
same,"effect of combination on therapeutic effectiveness, in words",[2]; [19],increased the therapeutic effectiveness
same,"therapeutic effectiveness of the combination, in words",[3],weak therapeutic effectiveness
"NNC(=O)c1ccncc1 [Isoniazid, isonicotinic acid hydrazide]",Scored sum of area: Breathing lung tissue,"[1]; mice, 42 days of treatment",17.5
same,Scored sum of area: Dense lymphocytic infiltrate,"[1]; mice, 42 days of treatment",1.59
same,Scored sum of area: Desquamative pneumonia,"[1]; mice, 42 days of treatment",3.52
same,Scored sum of area: Polymorpho cellular infiltrate,"[1]; mice, 42 days of treatment",0.86
same,Scored sum of area: Total lung tissue,"[1]; mice, 42 days of treatment",23.47
same,LD50,[4],150 mg/kg
same,decrease in CFU levels in the spleen,[2]; [17],25%
same,decrease in the coefficient of liver weight,[2]; [17],3.6%
same,increase in therapeutic effectiveness (average of indices of organ damage),[2]; [18],13.9%
same,"effect of combination on therapeutic effectiveness, in words",[2]; [19],increased the therapeutic effectiveness
same,Body weight % of initial,"[5]; rabbits, 15 mg/kg per os",−6.99%
same,Lethality % of initial number,"[5]; rabbits, 15 mg/kg per os",0%
same,Lethality ITE (%),[5]; [20],+100.0%
same,Body weight ITE (%),[5]; [20],+74.67%
same,Body weight ITE (%),"[5]; rabbits, 15 mg/kg per os, vs infection control, listed as isoniazid",74.67%
CC1COc2c(N3CCN(C)CC3)c(F)cc3c(=O)c(C(=O)O)cn1c23 (centres unmarked) [Ofloxacin],Scored sum of area: Breathing lung tissue,"[1]; mice, 42 days of treatment",7.32
same,Scored sum of area: Dense lymphocytic infiltrate,"[1]; mice, 42 days of treatment",6.32
same,Scored sum of area: Desquamative pneumonia,"[1]; mice, 42 days of treatment",10.49
same,Scored sum of area: Polymorpho cellular infiltrate,"[1]; mice, 42 days of treatment",0.04
same,Scored sum of area: Total lung tissue,"[1]; mice, 42 days of treatment",24.17
same,"decrease in indices (of therapeutic effectiveness), range over indices",[2]; [17],4.65% to 11.9
same,increase in the index of lung damage,[2]; [17],2.6%
same,decrease in therapeutic effectiveness,[2]; [18],6.2%
"CO[C@H]1/C=C/O[C@@]2(C)Oc3c(C)c(O)c4c(c3C2=O)C2=NC3(CCN(CC(C)C)CC3)NC2=C(NC(=O)/C(C)=C\C=C\[C@H](C)[C@H](O)[C@@H](C)[C@@H](O)[C@@H](C)[C@H](OC(C)=O)[C@@H]1C)C4=O [Rifabutin, rifabutin]",Scored sum of area: Breathing lung tissue,"[1]; mice, 42 days of treatment",23.27
same,Scored sum of area: Dense lymphocytic infiltrate,"[1]; mice, 42 days of treatment",0.53
same,Scored sum of area: Desquamative pneumonia,"[1]; mice, 42 days of treatment",0.16
same,Scored sum of area: Polymorpho cellular infiltrate,"[1]; mice, 42 days of treatment",0
same,Scored sum of area: Total lung tissue,"[1]; mice, 42 days of treatment",23.96
same,decrease in coefficient of lung weight,[2]; [17],12.4%
same,decrease in coefficient of spleen weight,[2]; [17],20.6%
same,increase in the coefficient of liver weight,[2]; [17],0.4%
same,increase in the index of lung damage,[2]; [17],7.4%
same,increase in therapeutic effectiveness (average of indices of organ damage),[2]; [18],7.68%
same,"effect of combination on therapeutic effectiveness, in words",[2]; [19],increased the therapeutic effectiveness
"CO[C@H]1/C=C/O[C@@]2(C)Oc3c(C)c(O)c4c(O)c(c(/C=N/N5CCN(C)CC5)c(O)c4c3C2=O)NC(=O)/C(C)=C\C=C\[C@H](C)[C@H](O)[C@@H](C)[C@@H](O)[C@@H](C)[C@H](OC(C)=O)[C@@H]1C [Rifampicin, rifampicin]",Scored sum of area: Breathing lung tissue,"[1]; mice, 42 days of treatment",19.65
same,Scored sum of area: Desquamative pneumonia,"[1]; mice, 42 days of treatment",1.94
same,Scored sum of area: Polymorpho cellular infiltrate,"[1]; mice, 42 days of treatment",0
same,Scored sum of area: Total lung tissue,"[1]; mice, 42 days of treatment",23.96
same,decrease in coefficient of lung weight,[2]; [17],18.2%
same,decrease in coefficient of spleen weight,[2]; [17],34.6%
same,decrease in the coefficient of liver weight,[2]; [17],1.6%
same,increase in CFU levels,[2]; [17],6.19%
same,increase in therapeutic effectiveness (average of indices of organ damage),[2]; [18],9.66%
NC(=S)NN=Cc1ccncc1.[O-][Cl+3]([O-])([O-])O [new treatment],Degree of mycobacterial growth,[6]; [21],++
same,MIC,[6]; M. tuberculosis “Academia”,6.25 µg/mL
same,allergenic properties,[7],no
same,immunotoxic properties,[7],no
same,mutagenic properties,[7],no
same,complete inhibition (MIC),[8],1.56 µg/mL
same,concentration of primary inhibition of mycobacterial growth (++),[8],0.19 µg/mL
same,toxicity relative to the prototype drug (lower),[9]; in comparison with the prototype drug,2.4 times
same,damage to vital organs and systems,[9]; in vivo,neither a significant structural and functional damage to vital organs and systems
same,"toxicity, in words",[9]; in vivo,low toxic agent
same,Degree of mycobacterial growth,[10]; 0.19 μg/ml in medium,++
same,Degree of mycobacterial growth,[10]; 0.39 μg/ml in medium,++
same,Degree of mycobacterial growth,[10]; 0.78 μg/ml in medium,++
same,MIC,[10]; M. tuberculosis Erdman,3.125 µg/mL
same,Degree of mycobacterial growth,[11]; [21],++
same,MIC,[11]; M. tuberculosis H37RV,6.25 µg/mL
same,"time for which appearance, physical characteristics and biological properties are stable",[12],3 years
same,effect on the growth of gram-positive and gram-negative microorganisms,[13],did not affect the growth
same,Body weight % of initial,"[5]; rabbit, in vivo, 20 mg/kg",−7.13%
same,Lethality % of initial number,"[5]; rabbit, in vivo, 20 mg/kg",0%
same,Lethality ITE (%),"[5]; rabbit, in vivo, 20 mg/kg",+100.0%
same,Body weight % of initial,[14]; 10 mg/kg,81.9%
same,Lethality %,[14]; 10 mg/kg,62.5%
same,Body weight % of initial,[14]; 20 mg/kg,94.5%
same,Lethality %,[14]; 20 mg/kg,25.0%
same,Body weight % of initial,[14]; 30 mg/kg,92.6%
same,Lethality %,[14]; 30 mg/kg,2.4%
same,"dose with teratogenic effect (non life-threatening skeletal malformations, delay in ossification, edema, subcutaneous hemorrhage)","[15]; administered during organogenesis, five times the therapeutic dose",100 mg/kg
same,effect on the reproductive function and offspring development in animals,[15]; continued administration,no effect
same,alterations in placenta development and sex formation,[15]; in vivo,no alterations
same,embryo toxicity,[15]; mainly if administered during organogenesis,moderate embryo toxicity
same,tuberculostatic activity relative to the prototype drug (higher),[16],200 times
